Measured values reported in US20250051395A1, “PEPTIDES AND METHODS FOR USE IN TREATING PAIN” (TAFALGIE THERAPEUTICS, priority 2021, published 2025).

What was measured:
[1] = tested on: Spared Nerve Injury (SNI) model, C57Bl6 mice; experiment: Spared Nerve Injury (SNI) model of neuropathic pain, Von Frey up-down paw withdrawal threshold; type: in vivo; conditions: for antalgic effect when administered orally: per os, 7 days after surgery, vs vehicle (FIG. 5)
Experimental: Mice were anesthetized with ketamine (100 mg/kg IP) and xylazine (10 mg/kg IP) and the left sciatic nerve was exposed under aseptic conditions. The distal trifurcation of the sciatic nerve was identified and the tibial and common peroneal branches were ligated with polypropylene nonabsorbable 6-0 sutures (Ethicon); 1 mm was cut out, leaving the sural branch intact. The wound was closed with sutures, and the animals were allowed to recover and returned to their cages.
(§1) The Von Frey's uses Von Frey (VF) hair or fibers, which are small pieces of nylon rod, approximately 50 mm in length to test a rodent's sensitivity to a mechanical stimulus. In this test, the animal stands on an elevated mesh platform, and the Von Frey hairs are inserted through the mesh to poke the animal's hindpaw. Normal reactions for the animal include withdrawing or licking or shaking the paw. The “up-down” Von Frey method is used to determine the mechanical force required to elicit a paw withdrawal response in 50% of animals. Here, mice were placed in plastic chambers on a wire mesh grid and stimulated with von Frey filaments (Bioseb) by the “up-down” method (45) starting with a 1 g filament, and using 0.04 and 4 g filaments as the cutoffs.
The experiments were conducted on eight-week-old male WT C57Bl6 mice. Three groups of 8 mice were used. Peptide of SEQ ID NO: 1 is resuspended in 0.9% NaCl at [0.6 mg/mL]. The peptide was diluted and used at a concentration of 0.3 mg/kg in this study.
After having measured the base threshold of mice with Von Frey (VF) filaments by the up/down method, the SNI model is set into place. The mice are anesthetized, ligature of the tibial nerve and of the fibular nerve is put into practice and these two nerves are then severed. The sural nerve left intact develops neuropathy quite rapidly. The occurrence of neuropathy is ascertained after 3 days post-surgery. A decrease in the response threshold to Von Frey filaments of the ipsilateral paw is thereby observed.
7 days after surgery, the response threshold is again measured. 100 μl/10 g of each of the peptide solutions, of vehicle and pregabalin solution are then blind-injected subcutaneously for the experimenter.
The same protocol was used as described in 1.1 except that the administration of the peptide, vehicle and pregabalin was done 14 days after surgery using per os administration for the peptide and vehicle.
For per os administration, the peptide of SEQ ID NO: 1 was diluted at a concentration of 30 μg/mL in a solution of 1% w/v Hydroxypropylmethylcellulose (Sigma-aldrich #423238, batch MKCD3665), 0.5% v/v Tween 80 (Euromedex #2002-A, batch 100412/16S407), referred then after as HPMC solution (vehicle).
Vehicle and peptide solution were orally administered using two gavage needles. […]

[2] = tested on: paw incision model (postoperative pain), C57Bl6 mice; experiment: Paw incision (Brennan) postoperative pain model, Von Frey paw withdrawal threshold, curative treatment; type: in vivo; conditions: morphine oral, 1 mg/kg, D1 after paw incision
Experimental: Mice were anesthetized with ketamine (100 mg/kg IP) and xylazine (10 mg/kg IP) and a longitudinal incision was made through the skin and fascia of the right hind paw. Forceps were used to elevate the flexor digitorum brevis muscle longitudinally and an incision was made through the muscle with a scalpel, to cut it into two halves. The wound was closed with sutures, and the animals were allowed to recover and returned to their cages. The paw incision was used as postoperative pain model.
as §1
The experiments were conducted on eight-week-old male WT C57Bl6. Three groups of 8 mice were used. […]

[3] = tested on: carrageenan model (inflammatory pain), C57Bl6 mice; experiment: Carrageenan injection inflammatory pain model, Von Frey paw withdrawal threshold; type: in vivo; conditions: celecoxib subcutaneous, 20 mg/kg
Experimental: Inventors injected 20 μl of 1% λ-carrageenan (Sigma-Aldrich, 22049-5G-F) in 1×PBS into the plantar surface of the left hind paw of the mouse with a Hamilton syringe. The carrageenan injection was used as an inflammatory pain model.
as §1
The experiments were conducted on eight-week-old male WT C57Bl6. Three groups of 8 mice were used.
As previously described, measurement with Von Frey filaments by the up/down method for determining the baseline was done. Then, an intraplantar injection of 20 μl of carrageenan (1%) was performed into a hind paw. […] Celecoxib is a well-known drug used as positive control.

[4] = tested on: injury-induced mechanical hypersensitivity in mice; conditions: cited from earlier work
[5] = pregabalin 5 mg/kg by gavage, day 14 post-SNI

Molecule: CC(C)C[C@H](CN)CC(=O)O [pregabalin, reference compound]
- effect on mechanical threshold at 4 h post-administration [1, 5]: completely abolished
- time of maximum reversal effect on mechanical threshold [1, 5]: 2 h

Molecule: CN1CC[C@]23c4c5ccc(O)c4O[C@H]2[C@@H](O)C=C[C@H]3[C@H]1C5 [morphine]
- response threshold [2]: increase in the response threshold

Molecule: Cc1ccc(-c2cc(C(F)(F)F)nn2-c2ccc(S(N)(=O)=O)cc2)cc1 [celecoxib]
- time of maximum antalgic effect [3]: 2 h

Molecule: TAFA-4 full length protein: human TAFA-4 mature protein of 105 amino acid residues, secreted neurokine of the prior art
- mechanical hypersensitivity (inflammatory, post-operative, nerve injury-induced) ([4]; intrathecal and subcutaneous administration, male and female mice): reverses inflammatory, post-operative and nerve injury-induced mechanical hypersensitivity
- prolonged nerve injury-induced mechanical hypersensitivity of TAFA-4 gene deleted mice ([4]; intrathecal injection, TAFA-4 gene deleted mice): reversed
- antalgic effect when administered orally [1]: did not show significant antalgic effect
- antalgic effect when administered orally ([1]; listed as TAFA4): No statistical differences
